Reference: US5122448A, “Assay of anti-Epstein-Barr virus nuclear antigen antibodies with synthetic polypeptides” (Scripps Clinic and Research Foundation, priority 1990, dated 1992)
Residues, ends and D or L forms follow the SMILES beside them.

Key:
anti-EBNA antibodies = experiment: ELISA with polypeptide as solid phase antigen, anti-polypeptide activity of sera (OD405); format: binding, human; settings: for Reaction of VCA+ sera with polypeptide: clinically normal VCA+ individuals, two dilutions; for Reaction of VCA- sera with polypeptide: panel of 19 VCA- sera; for OD405 × 10^3 obtained with Patient Antibodies to peptide: serum 1:20; for Number of anti-EBNA positive sera positive against (bound to) polypeptide: 91 ACIF anti-EBNA positive sera, 1:20 dilution; for Titer of PSS patients versus normals: Progressive Systemic Schlerosis patients
Protocol: Briefly, microtiter wells (Costar, #3590, Cambridge, MA) were typically coated with individual polypeptides as antigens by adding 100 microliters (ul) of BBS [10 millimoler (mM) sodium borate (pH 8.3), 150 mM NaCl] containing polypeptide at a concentration of 10 micrograms per milliliter (ug/ml). Contact between the wells and antigen-containing solution was maintained for a predetermined time, typically 15 minutes, and at 20 degrees C., to form an antigen-coated solid phase. The solid and liquid phases were separated and the wells were washed three times with BBS.
Non-specific binding sites were blocked by admixing 200 microliters of 1% bovine serum albumin (BSA) in each well to form another solid/liquid phase admixture, and maintaining that solid/liquid phase admixture for 30 minutes, at 20 degrees C. The phases were separated and excess, unbound BSA was removed by washing three times with BBS.
The antibodies in human sera that immunoreacted with an adsored polypeptide were detected using an indicating means comprising alkaline phosphatase-conjugated goat anti-human Ig antibody (Tago, Burlington, Calif.). The antibodies in rabbit sera that immunoreacted with an adsorbed polypeptide were detected using an indicating means comprising alkaline phosphatase-conjugated goat anti-rabbit Ig antibody (Kirkegard & Perry Laboratories, Inc., Gaithersburg, MD). In either instance, 100 microliters of the indicating antibody diluted 1:300 in BBS were added per well to form a further solid/liquid phase composition. This solid-liquid phase composition was maintained for a predetermined time, one hour, for the formation of a reaction product between the human antibodies bound to the solid phase and the indicating means, and at 20 degrees C. The phases were separated, and the solid phase was washed 3 times with BBS.
Alkaline phosphatase-conjugated antibody bound to polypeptide specific antibody was detected by spectrophotometrically measuring the enzymatic hydrolysis of p-nitrophenyl phosphate to p-nitrophenol. Briefly, 100 microliters of p-nitrophenyl phosphate [1 milligram per milliliter in 2 mM MgCl 2, (pH 9.8), 50 mM sodium carbonate] were added to each well. The enzymatic reaction was allowed to proceed 1 hour and then the optical density at 405 nm was determined in a [sequence] spectrophotometer available from Flow Laboratories, Inglewood, Calif.

[1] = Circular dichroism spectroscopy; format: physicochemical; settings: 1 mg/ml in phosphate buffered saline
Protocol: The conformational properties of the polypeptides were investigated to elucidate any secondary structure that might be necessary for polypeptide immunoreaction with human anti-EBNA antibodies. The polypeptides were dissolved at a concentration of 1 mg/ml in phosphate-buffered saline (PBS). Spectra were taken using 1 ml samples in a Cary 61 spectropolarimeter (Cary Instruments, Applied Physics Corp., Monrovia, Calif.) interfaced and automated with a Digital Equipment Corporation 11/02 computer (Digital Equipment Corporation, Maynard, Mass.).

[2] = system: rabbit anti-polypeptide antibody to polypeptide P62; experiment: Competition ELISA with rabbit anti-polypeptide P62 antibody on solid phase P62; format: binding; settings: antibody first incubated with competing polypeptide
Protocol: Anti-peptide antibody binding and inhibition studies were carried out by an enzyme-linked immunosorbent assay (ELISA) as described below.
Contact between the wells and antigen-containing solution was maintained for a predetermined time, typically 15 minutes, and at 20 degrees C., to form an antigen-coated solid phase. The solid and liquid phases were separated and the wells were washed three times with BBS.
Rabbit and human sera (body sample aliquots) were assayed for anti-polypeptide activity by adding 100 microliters of a serum diluted 1:20 in BBS per well to form a solid/liquid phase composition. Contact between the diluted sera and the antigen-coated solid phase was maintained for a predetermined time such as 1 hour, and at 20 degrees C., for an immunoreactant to form. The solid and liquid phases were separated, and the solid phase; i.e., antigen-coated, immunoreactant-containing wells, was then washed three times with BBS.

## C[C@H](NC(=O)CNC(=O)[C@@H]1CCCN1)C(=O)N1CCC[C@H]1C(=O)NCC(=O)NCC(=O)N[C@@H](CO)C(=O)NCC(=O)N[C@@H](CO)C(=O)NCC(=O)N1CCC[C@H]1C(=O)O [Polypeptide F13, H--Pro--Gly--Ala--Pro--Gly--Gly--Ser--Gly--Ser--Gly--Pro--OH] (H-PGAPGGSGSGP-OH)
anti-EBNA antibodies
  Reaction of VCA+ sera with polypeptide: all of the VCA^+ individuals were positive
  Reaction of VCA- sera with polypeptide: None of the VCA^- sera were found to react positively
[1]
  Conformation by circular dichroism spectrum: random conformation

## CSCC[C@H](NC(=O)[C@@H]1CCCN1C(=O)[C@H](CCCNC(=N)N)NC(=O)[C@H](CCCCN)NC(=O)[C@H](CCC(=O)O)NC(=O)CNC(=O)[C@H](CCCNC(=N)N)NC(=O)CNC(=O)[C@H](CCCNC(=N)N)NC(=O)CNC(=O)[C@H](CCCNC(=N)N)NC(=O)CNC(=O)[C@H](CCCNC(=N)N)NC(=O)[C@H](C)NC(=O)[C@@H](N)CCCNC(=N)N)C(=O)O [Polypeptide P89, H--Arg--Ala--Arg--Gly--Arg--Gly--Arg--Gly--Arg--Gly--Glu--Lys--Arg--Pro--Met--OH] (H-RARGRGRGRGEKRPM-OH)
anti-EBNA antibodies; MV post-mononucleosis
  OD405 × 10^3 obtained with Patient Antibodies to peptide: 25 OD405 × 10^3
anti-EBNA antibodies; MV pre-mononucleosis
  OD405 × 10^3 obtained with Patient Antibodies to peptide: 29 OD405 × 10^3
anti-EBNA antibodies; SB post-mononucleosis
  OD405 × 10^3 obtained with Patient Antibodies to peptide: 23 OD405 × 10^3
anti-EBNA antibodies; SB pre-mononucleosis
  OD405 × 10^3 obtained with Patient Antibodies to peptide: 9 OD405 × 10^3
anti-EBNA antibodies; VCA+ Normal 1
  OD405 × 10^3 obtained with Patient Antibodies to peptide: 23 OD405 × 10^3
anti-EBNA antibodies; VCA+ Normal 2
  OD405 × 10^3 obtained with Patient Antibodies to peptide: 16 OD405 × 10^3

## C[C@H](NC(=O)CNC(=O)CNC(=O)[C@H](C)NC(=O)CNC(=O)[C@H](C)NC(=O)CNC(=O)CNC(=O)[C@H](C)NC(=O)CNC(=O)[C@H](C)NC(=O)CNC(=O)CNC(=O)[C@H](C)NC(=O)CNC(=O)[C@H](C)NC(=O)CNC(=O)CN)C(=O)NCC(=O)N[C@@H](C)C(=O)NCC(=O)O [Polypeptide F16, H--Gly--Gly--Ala--Gly--Ala--Gly--Gly--Ala--Gly--Ala--Gly--Gly--Ala--Gly--Ala--Gly--Gly--Ala--Gly--Ala--Gly--OH] (H-GGAGAGGAGAGGAGAGGAGAG-OH)
anti-EBNA antibodies
  Number of anti-EBNA positive sera positive against (bound to) polypeptide: 91
  Titer of PSS patients versus normals: relatively higher average titer
  Reaction of VCA+ sera with polypeptide: all of the VCA^+ individuals were positive
  Reaction of VCA- sera with polypeptide: None of the VCA^- sera were found to react positively

## C[C@H](NC(=O)CNC(=O)CNC(=O)[C@H](C)NC(=O)CNC(=O)[C@H](C)NC(=O)CNC(=O)[C@H](C)NC(=O)CNC(=O)[C@@H](NC(=O)CNC(=O)CNC(=O)[C@H](Cc1c[nH]cn1)NC(=O)[C@@H](NC(=O)CNC(=O)[C@@H](N)CCCCN)[C@@H](C)O)[C@@H](C)O)C(=O)NCC(=O)N[C@@H](C)C(=O)NCC(=O)O [Polypeptide P27, H--Lys--Gly--Thr--His--Gly--Gly--Thr--Gly--Ala--Gly--Ala--Gly--Ala--Gly--Gly--Ala--Gly--Ala--Gly--OH] (H-KGTHGGTGAGAGAGGAGAG-OH)
anti-EBNA antibodies
  Number of anti-EBNA positive sera positive against (bound to) polypeptide: 91
  Titer of PSS patients versus normals: relatively higher average titer
  Reaction of VCA+ sera with polypeptide: all of the VCA^+ individuals were positive
  Reaction of VCA- sera with polypeptide: None of the VCA^- sera were found to react positively
anti-EBNA antibodies; MV post-mononucleosis
  OD405 × 10^3 obtained with Patient Antibodies to peptide: 107 OD405 × 10^3
anti-EBNA antibodies; MV pre-mononucleosis
  OD405 × 10^3 obtained with Patient Antibodies to peptide: 15 OD405 × 10^3
anti-EBNA antibodies; SB post-mononucleosis
  OD405 × 10^3 obtained with Patient Antibodies to peptide: 33 OD405 × 10^3
anti-EBNA antibodies; SB pre-mononucleosis
  OD405 × 10^3 obtained with Patient Antibodies to peptide: 11 OD405 × 10^3
anti-EBNA antibodies; VCA+ Normal 1
  OD405 × 10^3 obtained with Patient Antibodies to peptide: 155 OD405 × 10^3
anti-EBNA antibodies; VCA+ Normal 2
  OD405 × 10^3 obtained with Patient Antibodies to peptide: 516 OD405 × 10^3
anti-EBNA antibodies; VCA- Normals (n = 27), average ± one standard deviation
  OD405 × 10^3 obtained with Patient Antibodies to peptide: 67 ± 23 OD405 × 10^3
[2]
  Inhibition of binding of anti-polypeptide P62 to polypeptide P62 in the solid phase: 36%
[1]
  Conformation by circular dichroism spectrum: very similar spectra

## C[C@H](NC(=O)CN)C(=O)NCC(=O)NCC(=O)N[C@@H](C)C(=O)NCC(=O)N[C@@H](C)C(=O)NCC(=O)NCC(=O)NCC(=O)N[C@@H](C)C(=O)NCC(=O)NCC(=O)N[C@@H](C)C(=O)NCC(=O)NCC(=O)O [Polypeptide F15, H--Gly--Ala--Gly--Gly--Ala--Gly--Ala--Gly--Gly--Gly--Ala--Gly--Gly--Ala--Gly--Gly--OH] (H-GAGGAGAGGGAGGAGG-OH)
anti-EBNA antibodies
  Number of anti-EBNA positive sera positive against (bound to) polypeptide: 91
  Titer of PSS patients versus normals: relatively higher average titer
  Reaction of VCA+ sera with polypeptide: all of the VCA^+ individuals were positive
  Reaction of VCA- sera with polypeptide: None of the VCA^- sera were found to react positively
[1]
  Conformation by circular dichroism spectrum: very similar spectra

## C[C@H](NC(=O)CNC(=O)CNC(=O)CNC(=O)[C@H](C)NC(=O)CNC(=O)[C@H](C)NC(=O)CNC(=O)CNC(=O)[C@H](C)NC(=O)CNC(=O)CNC(=O)[C@H](C)NC(=O)CNC(=O)CN)C(=O)NCC(=O)O [Polypeptide F14, H--Gly--Gly--Ala--Gly--Gly--Ala--Gly--Gly--Ala--Gly--Ala--Gly--Gly--Gly--Ala--Gly--OH] (H-GGAGGAGGAGAGGGAG-OH)
anti-EBNA antibodies
  Number of anti-EBNA positive sera positive against (bound to) polypeptide: 91
  Titer of PSS patients versus normals: relatively higher average titer
  Reaction of VCA+ sera with polypeptide: all of the VCA^+ individuals were positive
  Reaction of VCA- sera with polypeptide: None of the VCA^- sera were found to react positively
[1]
  Conformation by circular dichroism spectrum: very similar spectra

## CC[C@H](C)[C@H](N)C(=O)N[C@@H](CCSC)C(=O)N[C@@H](CO)C(=O)N[C@@H](CC(=O)O)C(=O)N[C@@H](CCC(=O)O)C(=O)NCC(=O)N1CCC[C@H]1C(=O)NCC(=O)N[C@H](C(=O)NCC(=O)N[C@@H](CC(N)=O)C(=O)NCC(=O)N[C@@H](CC(C)C)C(=O)NCC(=O)N[C@@H](CCC(=O)O)C(=O)O)[C@@H](C)O [Polypeptide F12, H--Ile--Met--Ser--Asp--Glu--Gly--Pro--Gly--Thr--Gly--Asn--Gly--Leu--Gly--Glu--OH] (H-IMSDEGPGTGNGLGE-OH)
anti-EBNA antibodies
  Reaction of VCA+ sera with polypeptide: all of the VCA^+ individuals were positive
  Reaction of VCA- sera with polypeptide: None of the VCA^- sera were found to react positively
[1]
  Conformation by circular dichroism spectrum: partial assumption of such conformation
